The source of these data is PubChem BioAssay AID330 (DTP/NCI, 2004).

The assay relates to P388 leukemia ip, CD2F1 mice, survival T/C. In words: NCI In Vivo Anticancer Drug Screen. Data for tumor model P388 Leukemia (intraperitoneal) in CD2F1 (CDF1) mice. As to conditions: endpoint: median survival time, higher = longer survival. A digest of the protocol: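 Mice carrying the transplanted tumor received test compound or vehicle. Survival was recorded in each group, and the value is the treated-group measurement divided by that of the vehicle-treated control group.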

[1] abbreviates: dose: 60.0 mg/kg/injection, schedule: Q01DX005 (ip), vehicle: Klucel (hydroxypropylcellulose) (HPC).
[2] abbreviates: dose: 120.0 mg/kg/injection, schedule: Q01DX005 (ip), vehicle: Klucel (hydroxypropylcellulose) (HPC).
[3] abbreviates: dose: 100.0 mg/kg/injection, schedule: Q04DX003 (ip), vehicle: saline with Tween-80.
The mark [4] stands for this setting: dose: 200.0 mg/kg/injection, schedule: Q04DX003 (ip), vehicle: saline with Tween-80.
Where [5] appears, read: dose: 400.0 mg/kg/injection, schedule: Q04DX003 (ip), vehicle: saline with Tween-80.
Setting [6] is: dose: 100.0 mg/kg/injection, schedule: Q01DX009 (ip), vehicle: saline with Tween-80.
The mark [7] stands for this setting: dose: 200.0 mg/kg/injection, schedule: Q01DX009 (ip), vehicle: saline with Tween-80.
[8] abbreviates: dose: 400.0 mg/kg/injection, schedule: Q01DX009 (ip), vehicle: saline with Tween-80.
Where [9] appears, read: dose: 50.0 mg/kg/injection, schedule: Q01DX009 (ip), vehicle: saline with Tween-80.

Structures are written as SMILES. Several values for one entry are separate records, joined by “and”; a condition that tells them apart may be missing. Identical values can stand only once. Toxic doses and inconclusive results are not listed.

For the compound `O=C1NC(CN2CCCCC2)C(=O)NC1CN1CCCCC1` (stereo not given), the T/C is 89 % of control under setting [1] and 92 % of control under setting [2].

For `Cc1ccc(C2=C(Cl)C(=O)NC2=O)s1`, the T/C is 100 % of control (dose: 3.13 mg/kg/injection, schedule: Q01DX001 (ip), vehicle: saline); 99 % of control (dose: 6.25 mg/kg/injection, schedule: Q01DX001 (ip), vehicle: saline); 95 % of control (dose: 12.5 mg/kg/injection, schedule: Q01DX001 (ip), vehicle: saline).

Turning to `CCOC(=O)C1C(C(=O)c2ccccc2)C12C(=O)N(C)c1ccccc12` (stereo not given), the T/C is 103 % of control (dose: 12.5 mg/kg/injection, schedule: Q04DX002 (ip), vehicle: saline with Tween-80); 107 % of control (dose: 25.0 mg/kg/injection, schedule: Q04DX002 (ip), vehicle: saline with Tween-80); 103 % of control (dose: 50.0 mg/kg/injection, schedule: Q04DX002 (ip), vehicle: saline with Tween-80).

Turning to `COC(=O)c1ccccc1NC(=O)CN1C(=O)c2ccccc2C1=O`, the T/C by setting is: under setting [3], 96 % of control; under setting [4], 102 % of control; under setting [5], 88 % of control.

For `O=C(CCl)N/N=C(\Cc1ccccc1)c1ccccc1`, the T/C reads like this: under setting [6], 97 % of control; under setting [7], 98 % of control; under setting [8], 103 % of control.

In the case of `CCc1ccccc1NC1=C(Cl)C(=O)c2ccccc2C1=O`, the T/C is 104 % of control (dose: 60.0 mg/kg/injection, schedule: Q01DX005 (ip), vehicle: saline with Tween-80) and 107 % of control (dose: 120.0 mg/kg/injection, schedule: Q01DX005 (ip), vehicle: saline with Tween-80).

Regarding `CCn1c(O)c(N=NC(=N)SCC(C)C)c2ccccc21`, the T/C reads like this: (dose: 6.25 mg/kg/injection, schedule: Q01DX009 (ip), vehicle: suspension in saline) 97 % of control; (dose: 12.5 mg/kg/injection, schedule: Q01DX009 (ip), vehicle: suspension in saline) 94 % of control.

As to `COc1ccc(C(=O)CC(C(=O)O)c2ccc3c(c2)OCO3)cc1OC` (stereo not given), the T/C is 100 % of control under setting [3], 90 % of control under setting [4] and 90 % of control under setting [5].

Turning to `CCSc1nc2ccc(NC(=O)/C=C/C(=O)O)cc2s1`, the T/C reads like this: (dose: 50.0 mg/kg/injection, schedule: Q01DX009 (ip), vehicle: Klucel (hydroxypropylcellulose) (HPC)) 103 % of control; (dose: 100.0 mg/kg/injection, schedule: Q01DX009 (ip), vehicle: Klucel (hydroxypropylcellulose) (HPC)) 90 % of control; (dose: 200.0 mg/kg/injection, schedule: Q01DX009 (ip), vehicle: Klucel (hydroxypropylcellulose) (HPC)) 95 % of control.

Consider `COc1ccc(C(=O)c2no[n+]([O-])c2C(=O)c2ccc(OC)cc2)cc1`, for which the T/C was 108 % of control (dose: 25.0 mg/kg/injection, schedule: Q01DX009 (ip), vehicle: saline with Tween-80); 104 % of control and 107 % of control under setting [9]; 100 % of control and 106 % of control under setting [6]; 115 % of control under setting [7]; 123 % of control under setting [8].

Regarding `COC1=C(OC)C(=O)C(Sc2ccccc2)=C(CO)C1=O`, the T/C runs as follows: (dose: 1.56 mg/kg/injection, schedule: Q01DX005 (ip), vehicle: saline with Tween-80) 92 % of control; (dose: 3.12 mg/kg/injection, schedule: Q01DX005 (ip), vehicle: saline with Tween-80) 87 % of control; (dose: 12.5 mg/kg/injection, schedule: Q01DX005 (ip), vehicle: saline with Tween-80) 99 % of control.

In the case of `Cc1ccc(S(=O)(=O)c2cncnc2N)cc1`, the T/C (dose: 100.0 mg/kg/injection, schedule: Q01DX001 (ip), vehicle: saline) was 101 % of control; the T/C (dose: 200.0 mg/kg/injection, schedule: Q01DX001 (ip), vehicle: saline) was 110 % of control; the T/C (dose: 400.0 mg/kg/injection, schedule: Q01DX001 (ip), vehicle: saline) was 110 % of control.

Turning to `CCOc1nc(=O)[nH]c2c1CCCC2`, the T/C under setting [1] was 98 % of control and the T/C under setting [2] was 98 % of control.

Turning to `Nc1ccc(C(O)(C(F)(F)F)C(F)(F)F)c(C(=O)O)c1`, the T/C reads like this: (dose: 100.0 mg/kg/injection, schedule: Q04DX003 (ip), vehicle: other) 104 % of control; (dose: 200.0 mg/kg/injection, schedule: Q04DX003 (ip), vehicle: other) 100 % of control; (dose: 400.0 mg/kg/injection, schedule: Q04DX003 (ip), vehicle: other) 109 % of control.

Regarding `CCCCCCCCCCC/C=C/[N+](=O)[O-]`, the T/C runs as follows: (dose: 5.0 mg/kg/injection, schedule: Q01DX005 (ip), vehicle: Klucel (hydroxypropylcellulose) (HPC)) 101 % of control; (dose: 10.0 mg/kg/injection, schedule: Q01DX005 (ip), vehicle: Klucel (hydroxypropylcellulose) (HPC)) 99 % of control; (dose: 20.0 mg/kg/injection, schedule: Q01DX005 (ip), vehicle: Klucel (hydroxypropylcellulose) (HPC)) 104 % of control; (dose: 40.0 mg/kg/injection, schedule: Q01DX005 (ip), vehicle: Klucel (hydroxypropylcellulose) (HPC)) 99 % of control.

Regarding `COc1cc(CO)c(Br)c(OC)c1OC`, the T/C by setting is: (dose: 100.0 mg/kg/injection, schedule: Q01DX001 (ip), vehicle: Klucel (hydroxypropylcellulose) (HPC)) 100 % of control; (dose: 200.0 mg/kg/injection, schedule: Q01DX001 (ip), vehicle: Klucel (hydroxypropylcellulose) (HPC)) 100 % of control; (dose: 400.0 mg/kg/injection, schedule: Q01DX001 (ip), vehicle: Klucel (hydroxypropylcellulose) (HPC)) 106 % of control.

Turning to `CCCCc1cc2ccccc2c(OCCN(C)C)n1`, the T/C by setting is: (dose: 50.0 mg/kg/injection, schedule: Q01DX005 (ip), vehicle: saline) 97 % of control; (dose: 100.0 mg/kg/injection, schedule: Q01DX005 (ip), vehicle: saline) 115 % of control; (dose: 200.0 mg/kg/injection, schedule: Q01DX005 (ip), vehicle: saline) 111 % of control.

In the case of `COc1cccc(/C=N/NC(=S)Nc2cc(C(F)(F)F)cc(C(F)(F)F)c2)c1O`, the T/C by setting is: (dose: 25.0 mg/kg/injection, schedule: Q01DX005 (ip), vehicle: Klucel (hydroxypropylcellulose) (HPC)) 93 % of control; (dose: 50.0 mg/kg/injection, schedule: Q01DX005 (ip), vehicle: Klucel (hydroxypropylcellulose) (HPC)) 100 % of control and 93 % of control.

On to `CCOC(=O)NC(NC(=O)OCC)c1ccc(C(NC(=O)OCC)NC(=O)OCC)cc1`, for which the T/C is, setting by setting: (dose: 100.0 mg/kg/injection, schedule: Q04DX003 (ip), vehicle: saline) 99 % of control; (dose: 200.0 mg/kg/injection, schedule: Q04DX003 (ip), vehicle: saline) 90 % of control; (dose: 400.0 mg/kg/injection, schedule: Q04DX003 (ip), vehicle: saline) 89 % of control.

Regarding `OCc1c(Cl)n(-c2ccccc2)c2ccccc12`, the T/C is, setting by setting: (dose: 100.0 mg/kg/injection, schedule: Q04DX002 (ip), vehicle: Klucel (hydroxypropylcellulose) (HPC)) 96 % of control; (dose: 400.0 mg/kg/injection, schedule: Q04DX002 (ip), vehicle: Klucel (hydroxypropylcellulose) (HPC)) 98 % of control.

Turning to `Clc1cc(-c2ccccc2)no1`, the T/C is 109 % of control (dose: 25.0 mg/kg/injection, schedule: Q04DX003 (ip), vehicle: Klucel (hydroxypropylcellulose) (HPC)); 108 % of control (dose: 50.0 mg/kg/injection, schedule: Q04DX003 (ip), vehicle: Klucel (hydroxypropylcellulose) (HPC)); 99 % of control and 112 % of control (dose: 100.0 mg/kg/injection, schedule: Q04DX003 (ip), vehicle: Klucel (hydroxypropylcellulose) (HPC)).

Consider `Cc1ccccc1CC(C)c1ccccc1` (stereo not given), for which the T/C under setting [9] was 100 % of control and the T/C under setting [6] was 123 % of control.

For `O=C(NCCN1CCC(n2c(=O)[nH]c3cc(Cl)ccc32)CC1)c1ccc(F)cc1`, the T/C by setting is: (dose: 50.0 mg/kg/injection, schedule: Q01DX005 (ip), vehicle: saline with Tween-80) 95 % of control; (dose: 100.0 mg/kg/injection, schedule: Q01DX005 (ip), vehicle: saline with Tween-80) 88 % of control; (dose: 200.0 mg/kg/injection, schedule: Q01DX005 (ip), vehicle: saline with Tween-80) 90 % of control.
